Usually pIC50 stands for the IC50 on a negative log10 scale, so that one unit is a factor of ten.

Here are results for 9 compounds from patent publication US9566312B2, “Cyclic peptides and use as medicines” (priority 2012, dated 2017).

pIC50: −log10 of the molar value. Starred links: 1 amine or outer side, 2 acyl side, 3 side chain; linkers in the order of their positions; H or OH if unused. Non-standard residues stand in square brackets, D forms with d. Residues, ends and D or L forms follow the SMILES beside them. X42 = C[C@H](CCCOC(=O)N(C)C1CCN(C)CC1)[C@@H](C(=O)[*:2])N(C)[*:1]; X44 = CC(C)N1CCN(C(=O)COC[C@@H](C)[C@@H](C(=O)[*:2])N(C)[*:1])CC1; X1 = COC[C@@H]1CN(C[C@H](C)[C@@H](C(=O)[*:2])N(C)[*:1])CCO1; X60 = C[C@H](CCCN1CC2CCC(C1)N2C)[C@@H](C(=O)[*:2])N(C)[*:1]; X52 = C[C@H](CCC(=O)N1CCOCC1)[C@@H](C(=O)[*:2])N(C)[*:1]; X39 = C[C@H](CN1CCC(C#N)CC1)[C@@H](C(=O)[*:2])N(C)[*:1]; X47 = C[C@H](CN1CCC(F)(F)C1)[C@@H](C(=O)[*:2])N(C)[*:1]; MeBmt = C/C=C/C[C@@H](C)[C@@H](O)[C@H](NC)C(=O)O; NMeL = CN[C@@H](CC(C)C)C(=O)O; NMeV = CN[C@H](C(=O)O)C(C)C; dNMeA = CN[C@H](C)C(=O)O; Abu = CC[C@H](N)C(=O)O

The target in one experiment is CypF (Homo sapiens (Human), UniProt P30405). As to the kind of experiment: Inhibitor binding to cyclophilin proteins by SPR, CypF. As to conditions: 1:1 binding model. How it is done: (§1) Method 1: Measuring Inhibitor Binding to Cyclophilin Proteins
Sequence of CypF (P30405 30-207): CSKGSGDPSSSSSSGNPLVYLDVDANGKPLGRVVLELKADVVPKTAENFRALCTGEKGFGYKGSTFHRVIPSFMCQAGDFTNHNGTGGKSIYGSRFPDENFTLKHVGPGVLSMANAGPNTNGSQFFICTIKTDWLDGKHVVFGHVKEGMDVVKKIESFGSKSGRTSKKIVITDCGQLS
(§2) Binding of inhibitors to expressed cyclophilins was determined using surface plasmon resonance (SPR) experiments. Briefly, avi-tagged cyclophilin proteins with mono-biotinylation were immobilized onto a Biotin CAPture chip (GE Healthcare, cat. #28920234). SPR experiments were carried out on an upgraded Biacore T200 system using a running buffer containing the inhibitor, 10 mM HEPES, pH 7.4, 150 mM NaCl, 0.05% P20, and 3% DMSO. Single-cycle kinetics measurements were used to study the interactions between cyclophilin inhibitors and different cyclophlins. Accordingly, compound at various concentrations was injected to the flow cells with a contact time of 1 min each at a flow rate of 50 μL/min. The final dissociation phase lasts for 10 min following the sample injection. Data was analyzed using Biacore T200 Evaluation Software Version 1.0 and a 1:1 binding model was applied to fit the data to obtain kon, koff, and KD.
In general terms: In SPR one partner is held on a chip, and binding of the other changes the refractive index at the surface.

The next experiment addresses cyclophilin A (CypA) (Homo sapiens (Human), UniProt P62937). In words: Inhibitor binding to cyclophilin proteins by SPR, CypA. Also noted: unit not given here. The following applies: 1:1 binding model.
Experiment [1] has as its target organic anion transporting polypeptide 1B1 (OATP1B1) (Homo sapiens (Human), UniProt Q9Y6L6). In words: OATP assay in CHO-OATP1B1 cells.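 Also: inhibition of probe substrate uptake into the cells, ten minutes exposure, accumulated substrate read by fluorescence once cells were lysed.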
Description: In order to determine whether the compounds of the present invention interact with hepatic transporters, experiments were carried out that compared the concentration-dependent inhibition toward the organic anion transporting polypeptide 1B1 (OATP1B1) and the multidrug resistance associated protein 2 (MRP2).
The cells were cultured in DMEM/F12 +10% FBS+2 mM Ala-Gln+1% Pen-Strep for a period of two days, and the media was changed one day post-seeding. Prior to the assay, media was aspirated and were washed −3× with HBSS+10 mM HEPES and the solution was equilibrated for 15 min in HBSS+10 mM HEPES. Solutions containing the inhibitor were prepared in HBSS+10 mM HEPES (up to 1% DMSO). […] After 10 min, the substrate or substrate/inhibitor solution was aspirated and the cells were washed 3× with HBSS+10 mM HEPES. The amount of the transported probe substrate was determined by fluorescent photometry after cell lysis, and the IC50 was derived from the concentration-response curve.
Another experiment deals with cyclophilin B (CypB) (Homo sapiens (Human), UniProt P23284). In words: Inhibitor binding to cyclophilin proteins by SPR, CypB. Also noted: unit not given here. The following applies: 1:1 binding model. The method, then: as §1, §2
Sequence of cyclophilin B (CypB) (P23284 34-216): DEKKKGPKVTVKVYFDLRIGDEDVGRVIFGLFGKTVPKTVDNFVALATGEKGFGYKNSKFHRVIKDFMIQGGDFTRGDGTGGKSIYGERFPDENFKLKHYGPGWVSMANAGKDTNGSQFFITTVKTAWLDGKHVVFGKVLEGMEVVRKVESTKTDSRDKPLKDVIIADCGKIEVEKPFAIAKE
Experiment [2] deals with peripheral blood mononuclear cells (PBMC). As to the kind of experiment: Anti-proliferative or immunosuppressive activity, BrdU incorporation in PHA-stimulated PBMC. The format is cell-based. The following applies: PHA 3 μg/ml, 60 hour compound treatment; read-out: EMV PBMC IC50. The method, then:
Method 3: Measuring Anti-Proliferative or Immunosuppressive Activity
The potential anti-proliferative activity of compounds on T-cells was analyzed based on the amount of bromodesoxy uridine (BrdU) incorporated into DNA of fresh peripheral blood mononuclear cells (PBMC) using the BrdU ELISA kit (Roche). The assay is performed in 96-well plate format with 30,000 PBMCs seeded per well in X-VIVO 15 medium (Lonza). T-cell proliferation was stimulated by addition of 3 μg/ml phytohemagglutinin (PHA) in PBMCs obtained from two donors.
In general terms: Uptake of a labelled nucleoside into DNA is a usual measure of proliferation.

Experiment [3] deals with genotype 1b subgenomic HCV replicon in Huh7.5 cells. The format is cell-based, hepatitis C virus. As to conditions: genotype 1b replicon, 72 h incubation; read-out: RPLN-1b IC50. How it is done:
Method 2: Measuring Inhibitory Effects in a HCV Replicon System
Susceptibility to compounds was analyzed in Huh7.5 cells containing genotype 1a or 1b subgenomic HCV replicons co-expressing a luciferase reporter gene. The original replicons, pFK389lucubineo_3_3′_ET and pH/SG-Neo(L+I), were licensed from ReBlicon GmbH (Germany) and Apath LLC (Saint Louis, Mo.), respectively. The firefly reporter gen was replaced by renilla luciferase reporter gene using standard molecular biology techniques as follows.
Generation of genotype 1b subgenomic replicon: The renilla […]-neomycin phosphotransferase cassette was amplified from pF9 cytomegalovirus (CMV) hRluc-Neo Flexi(R) (Promega) by PCR using Accuprime super mix II (Invitrogen) and a primer set of Ascl hRlucNeo Fwd and NotI hRluc Rev. These two primers have the following sequences and introduce restriction sites for subsequent cloning: Ascl hRlucNeo Fwd, 5 […] 3(Ascl site underlined) (SEQ. ID No. 1), and NotI hRluc Rev, 5[…] 3(NotI site underlined) (SEQ ID No. 2). The amplification product was subcloned into pCR2.1-TOPO (Invitrogen). The resulting plasmid was digested with Ascl and NotI, and the excised fragment (hRluc-Neo) was ligated with the Roche Quick Ligation Kit (Roche) into pFK1389lucubineo_3_3′_ET digested with the same enzymes.
The assay medium for both, luciferase reporter HCV replicon and cytotoxicity assays contains phenol red-free DMEM and lacks G418. […] Luciferase activity of compound treated cells is measured relative to DMSO treated cells after 72 h incubation using Renilla-Glo™ Luciferase Assay (Promega). Cytotoxicity (CC50) is analyzed using Cell Titer-Glo™ (Promega).

Sequence of cyclophilin A (CypA) (P62937 whole entry): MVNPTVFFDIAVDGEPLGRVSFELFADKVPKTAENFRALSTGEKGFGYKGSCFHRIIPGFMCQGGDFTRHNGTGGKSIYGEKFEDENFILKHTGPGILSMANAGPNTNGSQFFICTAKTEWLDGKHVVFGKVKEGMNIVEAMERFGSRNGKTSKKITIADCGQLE
Sequence of organic anion transporting polypeptide 1B1 (OATP1B1) (Q9Y6L6 whole entry): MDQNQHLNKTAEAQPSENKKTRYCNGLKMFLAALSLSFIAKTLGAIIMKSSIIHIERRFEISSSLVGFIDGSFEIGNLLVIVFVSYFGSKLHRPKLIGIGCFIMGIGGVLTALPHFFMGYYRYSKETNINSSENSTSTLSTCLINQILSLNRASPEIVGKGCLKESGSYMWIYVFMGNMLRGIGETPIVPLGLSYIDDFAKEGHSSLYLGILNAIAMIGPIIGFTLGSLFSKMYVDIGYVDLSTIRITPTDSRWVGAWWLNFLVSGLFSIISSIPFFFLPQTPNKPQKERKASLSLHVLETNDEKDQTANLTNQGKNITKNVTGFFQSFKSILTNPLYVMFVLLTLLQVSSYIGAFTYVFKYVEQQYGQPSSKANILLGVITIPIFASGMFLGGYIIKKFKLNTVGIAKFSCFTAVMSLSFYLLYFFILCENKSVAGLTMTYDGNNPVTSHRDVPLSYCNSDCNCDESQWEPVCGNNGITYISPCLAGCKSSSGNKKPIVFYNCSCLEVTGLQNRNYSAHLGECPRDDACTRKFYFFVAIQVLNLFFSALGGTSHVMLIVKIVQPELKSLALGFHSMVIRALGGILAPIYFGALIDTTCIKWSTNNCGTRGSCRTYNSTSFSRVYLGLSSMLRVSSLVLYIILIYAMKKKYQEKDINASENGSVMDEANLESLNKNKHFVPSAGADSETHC

As for `C/C=C/C[C@@H](C)[C@@H](O)[C@H]1C(=O)N[C@@H](CC)C(=O)N(C)[C@H](C)C(=O)N(C)[C@@H]([C@H](C)COCC(=O)N2CCN(C(C)C)CC2)C(=O)N[C@@H](C(C)C)C(=O)N(C)[C@@H](CC(C)C)C(=O)N[C@@H](C)C(=O)N[C@H](C)C(=O)N(C)[C@@H](CC(C)C)C(=O)N(C)[C@@H](CC(C)C)C(=O)N(C)[C@@H](C(C)C)C(=O)N1C` [Compound 2.6.4, 3-[D-Ala]-4-[(2S,3S)-4-(2-(4-isopropylpiperazin-1-yl)-2-oxoethoxy)-3-methyl-2-(methylamino)butanoyl]-cyclosporin] (cyclo(A[dA][NMeL][NMeL][NMeV][MeBmt][Abu][dNMeA][X44]V[NMeL])), at CypF, the CypF Kd stood at 0.6 nM. Besides, the “CypA Kd” value at cyclophilin A (CypA) was determined as 1.4. In experiment [1], this compound gave a pIC50 of 5.10. Also, on cyclophilin B (CypB), the “CypB Kd” value was determined as 1.1.
The matching figures for `C/C=C/C[C@@H](C)[C@@H](O)[C@H]1C(=O)N[C@@H](CC)C(=O)N(C)[C@H](C)C(=O)N(C)[C@@H]([C@H](C)CCCOC(=O)N(C)C2CCN(C)CC2)C(=O)N[C@@H](C(C)C)C(=O)N(C)[C@@H](CC(C)C)C(=O)N[C@@H](C)C(=O)N[C@H](C)C(=O)N(C)[C@@H](CC(C)C)C(=O)N(C)[C@@H](CC(C)C)C(=O)N(C)[C@@H](C(C)C)C(=O)N1C` [Compound 2.19.9, 3-[D-Ala]-4-[(2S,3R)-3-methyl-6-((methyl(1-methylpiperidin-4-yl)carbamoyl)oxy)-2-(methylamino)hexanoyl]-cyclosporin] (cyclo(A[dA][NMeL][NMeL][NMeV][MeBmt][Abu][dNMeA][X42]V[NMeL])): 0.4 nM, 0.8, 5.43 and 0.4.
Take `C/C=C/C[C@@H](C)[C@@H](O)[C@H]1C(=O)N[C@@H](CC)C(=O)N(C)[C@H](C)C(=O)N(C)[C@@H]([C@H](C)CCC(=O)N2CCOCC2)C(=O)N[C@@H](C(C)C)C(=O)N(C)[C@@H](CC(C)C)C(=O)N[C@@H](C)C(=O)N[C@H](C)C(=O)N(C)[C@@H](CC(C)C)C(=O)N(C)[C@@H](CC(C)C)C(=O)N(C)[C@@H](C(C)C)C(=O)N1C` [Compound 2.14.4, 3-[D-Ala]-4-[(2S,3R)-3-methyl-2-(methylamino)-6-morpholino-6-oxohexanoyl]-cyclosporin] (cyclo(A[dA][NMeL][NMeL][NMeV][MeBmt][Abu][dNMeA][X52]V[NMeL])): at CypF, the CypF Kd amounted to 1.1 nM. Besides, the “CypA Kd” value at cyclophilin A (CypA) is 2.1. In experiment [1], this compound showed a pIC50 of 5.32. For the same compound, at cyclophilin B (CypB), the “CypB Kd” value came to 1.5.
In turn, `C/C=C/C[C@@H](C)[C@@H](O)[C@H]1C(=O)N[C@@H](CC)C(=O)N(C)[C@H](C)C(=O)N(C)[C@@H]([C@H](C)CCCN2CC3CCC(C2)N3C)C(=O)N[C@@H](C(C)C)C(=O)N(C)[C@@H](CC(C)C)C(=O)N[C@@H](C)C(=O)N[C@H](C)C(=O)N(C)[C@@H](CC(C)C)C(=O)N(C)[C@@H](CC(C)C)C(=O)N(C)[C@@H](C(C)C)C(=O)N1C` [Compound 2.19.3] (cyclo(A[dA][NMeL][NMeL][NMeV][MeBmt][Abu][dNMeA][X60]V[NMeL])) came in with a CypF Kd at CypF of 0.3 nM. Further, the “CypA Kd” value on cyclophilin A (CypA) is listed as 0.8. Also, the pIC50 was 5.70 in experiment [2] and 6.54 in experiment [3]. In addition, on cyclophilin B (CypB), the “CypB Kd” value was 0.4.
`C/C=C/C[C@@H](C)[C@@H](O)[C@H]1C(=O)N[C@@H](CC)C(=O)N(C)[C@H](C)C(=O)N(C)[C@@H]([C@H](C)COCCN2CCN3C(=O)OC[C@@H]3C2)C(=O)N[C@@H](C(C)C)C(=O)N(C)[C@@H](CC(C)C)C(=O)N[C@@H](C)C(=O)N[C@H](C)C(=O)N(C)[C@@H](CC(C)C)C(=O)N(C)[C@@H](CC(C)C)C(=O)N(C)[C@@H](C(C)C)C(=O)N1C` [Compound 2.8.11, 3-[D-Ala]-4-[(2S,3S)-3-methyl-2-(methylamino)-4-(2-((S)-3-oxotetrahydro-1H-oxazolo[3,4-a]pyrazin-7(3H)-yl)ethoxy)butanoyl]-cyclosporin]: the CypF Kd at CypF turned out to be 0.5 nM. Also, the “CypA Kd” value at cyclophilin A (CypA) amounted to 1.3. Moreover, the pIC50 was 4.91 in experiment [2] and 7.24 in experiment [3]. Further, on cyclophilin B (CypB), the “CypB Kd” value was 0.6.
Regarding `C/C=C/C[C@@H](C)[C@@H](O)[C@H]1C(=O)N[C@@H](CC)C(=O)N(C)[C@H](C)C(=O)N(C)[C@@H]([C@H](C)CN2CCC(F)(F)C2)C(=O)N[C@@H](C(C)C)C(=O)N(C)[C@@H](CC(C)C)C(=O)N[C@@H](C)C(=O)N[C@H](C)C(=O)N(C)[C@@H](CC(C)C)C(=O)N(C)[C@@H](CC(C)C)C(=O)N(C)[C@@H](C(C)C)C(=O)N1C` [Compound 2.5.18, 3-[D-Ala]-4-[(2S,3R)-4-(3,3-difluoropyrrolidin-1-yl)-3-methyl-2-(methylamino)butanoyl]-cyclosporin] (cyclo(A[dA][NMeL][NMeL][NMeV][MeBmt][Abu][dNMeA][X47]V[NMeL])), the CypF Kd on CypF worked out at 2 nM. Moreover, the “CypA Kd” value on cyclophilin A (CypA) is recorded as 3.9. Besides, the figures for the pIC50 in experiment [2] and in experiment [3] were 4.92 and 8.05, respectively. For the same compound, the “CypB Kd” value on cyclophilin B (CypB) is 1.8.
At CypF, `C/C=C/C[C@@H](C)[C@@H](O)[C@H]1C(=O)N[C@@H](CC)C(=O)N(C)[C@H](C)C(=O)N(C)[C@@H]([C@@H](C)CN2CCO[C@H](COC)C2)C(=O)N[C@@H](C(C)C)C(=O)N(C)[C@@H](CC(C)C)C(=O)N[C@@H](C)C(=O)N[C@H](C)C(=O)N(C)[C@@H](CC(C)C)C(=O)N(C)[C@@H](CC(C)C)C(=O)N(C)[C@@H](C(C)C)C(=O)N1C` [Compound 2.17.11, 3-[D-Ala]-4-[(2S,3S)-4-((S)-2-(methoxymethyl)morpholino)-3-methyl-2-(methylamino)butanoyl]-cyclosporin] (cyclo(A[dA][NMeL][NMeL][NMeV][MeBmt][Abu][dNMeA][X1]V[NMeL])) gave a CypF Kd of 0.6 nM. For the same compound, at cyclophilin A (CypA), the “CypA Kd” value is given as 1.1. For the same compound, the pIC50 in experiment [2] was 4.44; in experiment [3], 7.66. The “CypB Kd” value at cyclophilin B (CypB) worked out at 0.7.
The matching figures for `C/C=C/C[C@@H](C)[C@@H](O)[C@H]1C(=O)N[C@@H](CC)C(=O)N(C)[C@H](C)C(=O)N(C)[C@@H]([C@H](C)CN2CCC(C#N)CC2)C(=O)N[C@@H](C(C)C)C(=O)N(C)[C@@H](CC(C)C)C(=O)N[C@@H](C)C(=O)N[C@H](C)C(=O)N(C)[C@@H](CC(C)C)C(=O)N(C)[C@@H](CC(C)C)C(=O)N(C)[C@@H](C(C)C)C(=O)N1C` [Compound 2.5.26, 3-[D-Ala]-4-[(2S,3R)-4-(4-cyanopiperidin-1-yl)-3-methyl-2-(methylamino)butanoyl]-cyclosporin] (cyclo(A[dA][NMeL][NMeL][NMeV][MeBmt][Abu][dNMeA][X39]V[NMeL])): 0.8 nM, 1.3, 4.94, 7.54 and 0.8.
The matching figures for `C/C=C/C[C@@H](C)[C@@H](O)[C@H]1C(=O)N[C@@H](CC)C(=O)N(C)[C@H](C)C(=O)N(C)[C@@H]([C@H](C)COCCN2CC(OC)C2)C(=O)N[C@@H](C(C)C)C(=O)N(C)[C@@H](CC(C)C)C(=O)N[C@@H](C)C(=O)N[C@H](C)C(=O)N(C)[C@@H](CC(C)C)C(=O)N(C)[C@@H](CC(C)C)C(=O)N(C)[C@@H](C(C)C)C(=O)N1C` [Compound 2.8.9, 3-[D-Ala]-4-[(2S,3S)-4-(2-(3-methoxyazetidin-1-yl)ethoxy)-3-methyl-2-(methylamino)butanoyl]-cyclosporin]: 0.3 nM, 0.6, 5.04, 6.62 and 0.4.
